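Method: 48-hour compound exposure of cells in 96-well plates, five concentrations, linear interpolation of endpoints. The concentration for 50% growth inhibition is given as GI50.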 Activity calls are given as the source filed them. Cut-off read from the data, not from the text of the source: active = GI50 up to about 1.1 µM and inactive = higher. Where a SMILES comes first, the peptide text is derived from it. [ ]: non-standard residue; d: D form. The star is where a group is joined. Hyp = O=C(O)[CH]1C[CH](O)CN1; Cbz = O=C(OCc1ccccc1)*
Tests used:
Assay in all cases: DTP human tumour cell line panel, 48 h
[1] = test system: UACC-257
[2] = test system: A549
[3] = test system: MOLT-4
[4] = test system: SW-620
[5] = test system: IGROV-1
[6] = test system: DMS-273
[7] = test system: OVCAR-8
[8] = test system: SF-268
[9] = test system: SN12C
[10] = test system: SNB-75
[11] = test system: HL-60
[12] = test system: EKVX
[13] = test system: SK-MEL-5
[14] = test system: LOX IMVI
[15] = test system: DU-145
[16] = test system: MDA-N
[17] = test system: MDA-MB-435
[18] = test system: MDA-MB-231
[19] = test system: HCC 2998
[20] = test system: MCF7

SMILES	GI50 [1]	GI50 [2]	GI50 [3]	GI50 [4]	GI50 [5]	GI50 [6]	GI50 [7]	GI50 [8]	GI50 [9]	GI50 [10]	GI50 [11]	GI50 [12]	GI50 [13]	GI50 [14]	GI50 [15]	GI50 [16]	GI50 [17]	GI50 [18]	GI50 [19]	GI50 [20]
COc1cc2c(cc1O)C=NCC2	> 100 µM (inactive)	> 100 µM (inactive)	60.5 µM (inactive)	> 100 µM (inactive)	> 100 µM (inactive)	> 100 µM (inactive)	> 100 µM (inactive)	> 100 µM (inactive)	> 100 µM (inactive)	> 100 µM (inactive)	> 100 µM (inactive)	> 100 µM (inactive)	63.5 µM (inactive)	–	–	–	–	–	–	–
CC(=O)OCC1CCC(=C2C(=O)OC(C)(C)OC2=O)N1 (stereo not drawn)	> 100 µM (inactive)	> 100 µM (inactive)	> 100 µM (inactive)	> 100 µM (inactive)	> 100 µM (inactive)	–	> 100 µM (inactive)	> 100 µM (inactive)	> 100 µM (inactive)	> 100 µM (inactive)	> 100 µM (inactive)	> 100 µM (inactive)	> 100 µM (inactive)	> 100 µM (inactive)	> 100 µM (inactive)	> 100 µM (inactive)	> 100 µM (inactive)	> 100 µM (inactive)	> 100 µM (inactive)	> 100 µM (inactive)
Nc1cccc(S(=O)(=O)NCC(=O)O)c1	> 100 µM (inactive)	> 100 µM (inactive)	> 100 µM (inactive)	> 100 µM (inactive)	> 100 µM (inactive)	> 100 µM (inactive)	> 100 µM (inactive)	> 100 µM (inactive)	> 100 µM (inactive)	> 100 µM (inactive)	–	> 100 µM (inactive)	> 100 µM (inactive)	> 100 µM (inactive)	–	–	–	–	> 100 µM (inactive)	–
CC1=NN=C(N)NC1=CC(Sc1ccc(Cl)cc1)c1c(O)ccc2ccccc12 (stereo not drawn)	20.9 µM (inactive)	28.9 µM (inactive)	21.1 µM (inactive)	24.8 µM (inactive)	13 µM (inactive)	–	16.7 µM (inactive)	11.3 µM (inactive)	19 µM (inactive)	18.6 µM (inactive)	> 10 µM (inactive)	18 µM (inactive)	8.07 µM (inactive)	19.3 µM (inactive)	16.1 µM (inactive)	28.2 µM (inactive)	19.6 µM (inactive)	21.1 µM (inactive)	16.7 µM (inactive)	20 µM (inactive)
COc1cccc(NC(=O)CSc2nnc(-c3ccc(NC(C)=O)cc3)o2)c1	> 100 µM (inactive)	> 100 µM (inactive)	> 100 µM (inactive)	> 100 µM (inactive)	50 µM (inactive)	> 100 µM (inactive)	> 100 µM (inactive)	> 100 µM (inactive)	> 100 µM (inactive)	30.5 µM (inactive)	> 100 µM (inactive)	–	> 100 µM (inactive)	> 100 µM (inactive)	–	–	–	–	–	–
COC(=O)c1ccc2c(c1)sc1nc(-c3ccc(OC)cc3)cn12	49 µM (inactive)	> 100 µM (inactive)	> 100 µM (inactive)	> 100 µM (inactive)	48.2 µM (inactive)	–	91.4 µM (inactive)	83.8 µM (inactive)	> 100 µM (inactive)	34.8 µM (inactive)	25.1 µM (inactive)	> 100 µM (inactive)	21.1 µM (inactive)	> 100 µM (inactive)	> 100 µM (inactive)	78.9 µM (inactive)	42.8 µM (inactive)	> 100 µM (inactive)	> 100 µM (inactive)	66.2 µM (inactive)
NC(=O)CNC(=O)C1CC(O)CN1C(=O)C1CCCN1C(=O)OCc1ccccc1 (stereo not drawn) (Cbz-Pro-[Hyp]-Gly-NH2; configuration not given here)	> 100 µM (inactive)	> 100 µM (inactive)	> 100 µM (inactive)	> 100 µM (inactive)	> 100 µM (inactive)	–	> 100 µM (inactive)	> 100 µM (inactive)	> 100 µM (inactive)	> 100 µM (inactive)	> 100 µM (inactive)	> 100 µM (inactive)	> 100 µM (inactive)	> 100 µM (inactive)	> 100 µM (inactive)	> 100 µM (inactive)	> 100 µM (inactive)	> 100 µM (inactive)	> 100 µM (inactive)	> 100 µM (inactive)
CC1CC[C@@]2(OC1)O[C@H]1C[C@H]3[C@@H]4CC[C@H]5C[C@@H](OC6OC(CO)C(OC7OC(CO)C(OC8OC(CO)C(O)C(OC9OC(C)C(OC%10OC(C)C(O)C(O)C%10O)C(O)C9O)C8OC8OCC(O)C(O)C8O)C(O)C7O)C(O)C6O)CC[C@]5(C)[C@H]4CC(=O)[C@]3(C)[C@H]1[C@@H]2C (stereo partly drawn)	18.2 µM (inactive)	23.2 µM (inactive)	18.1 µM (inactive)	20.3 µM (inactive)	20.5 µM (inactive)	–	20.7 µM (inactive)	25.6 µM (inactive)	20.9 µM (inactive)	19.8 µM (inactive)	12.9 µM (inactive)	22.1 µM (inactive)	16.8 µM (inactive)	23.8 µM (inactive)	19.9 µM (inactive)	20 µM (inactive)	18.7 µM (inactive)	16.1 µM (inactive)	18.7 µM (inactive)	17.7 µM (inactive)
Cc1cc(C=O)c2c(=O)c3c(O)ccc(/C=C/C(C)C)c3oc2c1	> 100 µM (inactive)	> 100 µM (inactive)	28.9 µM (inactive)	28.1 µM (inactive)	52.4 µM (inactive)	48.3 µM (inactive)	65.2 µM (inactive)	41.9 µM (inactive)	–	95.1 µM (inactive)	28.3 µM (inactive)	–	65.5 µM (inactive)	–	–	–	–	–	> 100 µM (inactive)	–
CCN(c1ccccc1)[C@H]1C(=O)N(c2ccc([N+](=O)[O-])cc2)[C@H]1c1ccc(OC)cc1	> 100 µM (inactive)	> 100 µM (inactive)	> 100 µM (inactive)	> 100 µM (inactive)	> 100 µM (inactive)	> 100 µM (inactive)	> 100 µM (inactive)	> 100 µM (inactive)	98.6 µM (inactive)	46.9 µM (inactive)	75.3 µM (inactive)	> 100 µM (inactive)	> 100 µM (inactive)	–	–	–	–	–	> 100 µM (inactive)	–
CC1(O)CCC2(C)C(=O)C1(C)CCC21OCCO1 (stereo not drawn)	> 100 µM (inactive)	> 100 µM (inactive)	> 100 µM (inactive)	> 100 µM (inactive)	> 100 µM (inactive)	> 100 µM (inactive)	> 100 µM (inactive)	> 100 µM (inactive)	> 100 µM (inactive)	–	> 100 µM (inactive)	> 100 µM (inactive)	> 100 µM (inactive)	–	–	–	–	–	> 100 µM (inactive)	–
NC(=O)c1c[se]c(C2OC(COP(=O)(O)CP(=O)(O)OCC3OC(n4cnc5c(N)ncnc54)C(O)C3O)C(O)C2O)n1 (stereo not drawn)	> 100 µM (inactive)	51.3 µM (inactive)	35.3 µM (inactive)	30.9 µM (inactive)	84.3 µM (inactive)	38.6 µM (inactive)	87.9 µM (inactive)	> 100 µM (inactive)	> 100 µM (inactive)	> 100 µM (inactive)	28.2 µM (inactive)	> 100 µM (inactive)	> 100 µM (inactive)	–	–	–	–	–	–	–
CN(C)/C(N)=N\C#N	> 100 µM (inactive)	> 100 µM (inactive)	> 100 µM (inactive)	21 µM (inactive)	> 100 µM (inactive)	> 100 µM (inactive)	> 100 µM (inactive)	> 100 µM (inactive)	> 100 µM (inactive)	> 100 µM (inactive)	> 100 µM (inactive)	> 100 µM (inactive)	> 100 µM (inactive)	–	–	–	–	–	> 100 µM (inactive)	–
CCOC(=O)Cc1c(C)c2cc(C(=O)c3ccccc3)c(O)cc2oc1=O	28.7 µM (inactive)	25.8 µM (inactive)	36.1 µM (inactive)	45.1 µM (inactive)	39.6 µM (inactive)	–	34.1 µM (inactive)	24.9 µM (inactive)	31.6 µM (inactive)	30.4 µM (inactive)	24.4 µM (inactive)	25.5 µM (inactive)	17.6 µM (inactive)	30.3 µM (inactive)	30.8 µM (inactive)	33.3 µM (inactive)	33 µM (inactive)	23.8 µM (inactive)	32.6 µM (inactive)	22.4 µM (inactive)
O=C(CC(Cc1ccccc1)c1ccc(Oc2ccccc2)cc1)Nc1cccc(Cl)c1 (stereo not drawn)	11 µM (inactive)	3.9 µM (inactive)	3.69 µM (inactive)	4.42 µM (inactive)	2.9 µM (inactive)	–	3.96 µM (inactive)	19.2 µM (inactive)	4.22 µM (inactive)	6.73 µM (inactive)	3.02 µM (inactive)	4.4 µM (inactive)	11.3 µM (inactive)	3.73 µM (inactive)	5.43 µM (inactive)	4.47 µM (inactive)	4.32 µM (inactive)	10.8 µM (inactive)	3.27 µM (inactive)	3.42 µM (inactive)
COc1ccc(C(c2c[nH]c3ccc(Br)cc23)c2c[nH]c3ccc(Br)cc23)cc1	0.29 µM (active)	0.346 µM (active)	0.142 µM (active)	0.29 µM (active)	0.264 µM (active)	–	0.22 µM (active)	0.33 µM (active)	0.31 µM (active)	0.352 µM (active)	0.0828 µM (active)	0.38 µM (active)	0.359 µM (active)	0.137 µM (active)	0.364 µM (active)	0.208 µM (active)	0.172 µM (active)	0.242 µM (active)	0.181 µM (active)	0.21 µM (active)

Source: ChEMBL document CHEMBL1201862, “PubChem BioAssay data set” (2004)
